This passage reports TGI and GI50 results from PubChem BioAssay (NCI).

Some test systems named below: 786-0 renal; CCRF-CEM leukemia; K-562 leukemia; MDA-MB-435; OVCAR-3 ovarian; SF-539 CNS; SW-620 colon; TK-10 renal; U251 CNS; UO-31 renal.
Test in all cases: NCI tumour cell line growth inhibition, 48 h

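Growth conditions: 96-well plates. Treatment: test compound, 48 hours, 5 concentrations. Analysis: linear interpolation between bracketing concentrations; unreached endpoints set to highest concentration. At the GI50, growth is halved. TGI is the concentration that stops growth completely.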 Some results are limits rather than exact numbers.

Regarding `O=[N+]([O-])c1nccn1CCCNCCCn1ccnc1[N+](=O)[O-]`, the TGI with 786-0 renal, with CCRF-CEM leukemia, in the assay with K-562 leukemia, in the assay with MDA-MB-435, in the assay with OVCAR-3 ovarian and with SF-539 CNS was > 100 µM each time. In addition, the TGI in the assay on SW-620 colon, with TK-10 renal, with U251 CNS and with UO-31 renal was > 100 µM each time.

On to `C=CCn1cnc2c(=O)[nH]c(Nc3ccccc3)nc21`, for which the TGI with 786-0 renal, in the assay with CCRF-CEM leukemia, in the assay on MDA-MB-435, in the assay on OVCAR-3 ovarian, in the assay on SF-539 CNS and with SW-620 colon was > 100 µM throughout. In addition, the TGI in the assay with TK-10 renal, in the assay on U251 CNS and with UO-31 renal was > 100 µM each time.

Consider `NC(=O)C(Nc1ccc(Cl)cc1)c1cc2cc(Br)ccc2nc1Cl` (stereo unspecified), for which the TGI with 786-0 renal, with CCRF-CEM leukemia, in the assay on K-562 leukemia, with MDA-MB-435, in the assay with OVCAR-3 ovarian and with SF-539 CNS was > 50 µM throughout. In addition, the results for the TGI in the assay with SW-620 colon, in the assay on TK-10 renal and in the assay on UO-31 renal were > 50 µM, 47.7 µM and > 50 µM, respectively.

Turning to `COC(=O)c1c(C(=O)OC)c2c3ccccc3n(C)c2c2c1c1ccccc1n2C`, the TGI with 786-0 renal, in the assay with CCRF-CEM leukemia, in the assay with K-562 leukemia, in the assay with MDA-MB-435, in the assay on SF-539 CNS and in the assay on SW-620 colon was > 100 µM each time. The TGI with TK-10 renal, in the assay with U251 CNS and with UO-31 renal was > 100 µM in each case.

As for `OC(c1ccccc1)C(F)(F)c1nc2ccccc2o1` (stereo unspecified), the TGI was > 100 µM in the assay on 786-0 renal; > 100 µM in the assay with CCRF-CEM leukemia; 75.3 µM in the assay with K-562 leukemia; > 100 µM in the assay with MDA-MB-435; > 100 µM with SF-539 CNS; > 100 µM in the assay with SW-620 colon. The TGI in the assay with TK-10 renal, with U251 CNS and with UO-31 renal was > 100 µM each time.

In the case of `CC(=O)Oc1c2oc3cc(O)c(O)cc3c2c(OC(C)=O)c2oc3cc(O)c(O)cc3c12`, the TGI in the assay with 786-0 renal was > 100 µM; in the assay on CCRF-CEM leukemia, > 100 µM; with K-562 leukemia, > 100 µM; in the assay on MDA-MB-435 it was 3.81 µM; with SF-539 CNS it was 53.3 µM; in the assay with SW-620 colon, > 100 µM. Besides, the TGI in the assay with TK-10 renal worked out at 32.9 µM; in the assay on U251 CNS it was 3.44 µM; in the assay on UO-31 renal it was 42 µM.

For `O=C1NC(S(=O)(=O)O)=NNC12c1ccccc1-c1ccccc12`, the TGI in the assay with 786-0 renal, in the assay on CCRF-CEM leukemia, in the assay on K-562 leukemia, in the assay on MDA-MB-435, in the assay with SF-539 CNS and with SW-620 colon was > 10 µM throughout. The TGI with TK-10 renal and with UO-31 renal was > 10 µM in each case.

On to `CN(C)c1ccc(C2ON=C(c3ccccc3)N2C23CC4CC(CC(C4)C2)C3)cc1` (stereo unspecified), for which the TGI in the assay on 786-0 renal, in the assay on CCRF-CEM leukemia, in the assay with K-562 leukemia, in the assay on MDA-MB-435, in the assay with OVCAR-3 ovarian and with SF-539 CNS was > 10 µM each time. Further, the TGI with SW-620 colon, with TK-10 renal and in the assay with U251 CNS was > 10 µM in each case.

As for `Nc1c(N2CCCCC2)c(=O)nc2[nH]/c(=C\c3ccccc3)c(=O)n12`, the TGI in the assay on 786-0 renal, in the assay on CCRF-CEM leukemia, in the assay on K-562 leukemia, with MDA-MB-435, in the assay with SF-539 CNS and in the assay on SW-620 colon was > 100 µM throughout. Besides, the TGI with TK-10 renal, with U251 CNS and with UO-31 renal was > 100 µM throughout.

Take `COC(=O)[C@@H]1Cc2cc(O)c(O)cc2C2(CCN(C)CC2)O1`: the TGI with 786-0 renal, in the assay on CCRF-CEM leukemia, with MDA-MB-435, with OVCAR-3 ovarian, in the assay on SF-539 CNS and in the assay on SW-620 colon was > 10 µM each time. Moreover, the TGI with TK-10 renal and in the assay on U251 CNS was > 10 µM throughout.

Take `N#Cc1c(-c2ccccc2)c(C#N)c(=O)n(C2OC(CO)C(O)C(O)C2O)c1S` (stereo unspecified): the TGI in the assay with 786-0 renal, in the assay on CCRF-CEM leukemia, in the assay on K-562 leukemia, with MDA-MB-435, in the assay with OVCAR-3 ovarian and in the assay with SF-539 CNS was > 100 µM in each case. The TGI in the assay on SW-620 colon, with TK-10 renal and in the assay on UO-31 renal was > 100 µM each time.

Turning to `Cc1ccc(C2CC(c3cccc(Nc4ccncc4)c3)=NN2c2ccccc2)cc1` (stereo unspecified), the GI50 in the assay with CCRF-CEM leukemia is 3.95 µM; in the assay with K-562 leukemia, 2.11 µM; in the assay with MDA-MB-435 it was 1.64 µM; in the assay on OVCAR-3 ovarian it was 1.7 µM; with SF-539 CNS, 1.74 µM; in the assay on SW-620 colon, 1.71 µM. For the same compound, the GI50 in the assay with UO-31 renal is 1.41 µM. For the same compound, the TGI with CCRF-CEM leukemia worked out at 77.9 µM; with K-562 leukemia, 6.62 µM; with MDA-MB-435, 3.06 µM; in the assay with OVCAR-3 ovarian, 3.13 µM; with SF-539 CNS, 3.16 µM; in the assay on SW-620 colon, 3.3 µM. In the assay with UO-31 renal, this compound showed a TGI of 2.74 µM.

On to `BrCC(Br)(c1ccccc1)c1ccccc1-c1cc(-c2ccccc2)cc(-c2ccccc2)n1` (stereo unspecified), for which the TGI with 786-0 renal was 13.8 µM; with CCRF-CEM leukemia, > 53.3 µM; with K-562 leukemia it was 8.69 µM; with MDA-MB-435, 4.63 µM; with SF-539 CNS, 19 µM; with SW-620 colon, 14.2 µM. Besides, the TGI with TK-10 renal stood at 21.5 µM; in the assay on U251 CNS, 5.85 µM; with UO-31 renal, 26.8 µM.

Turning to `O=C(O)Cn1c2c(c3c(O)cccc31)C(=O)c1ccccc1-2`, the GI50 in the assay on CCRF-CEM leukemia was > 100 µM; with K-562 leukemia, > 100 µM; in the assay with MDA-MB-435 it was > 100 µM; in the assay with OVCAR-3 ovarian, > 100 µM; with SF-539 CNS, 5.62 µM; in the assay on SW-620 colon, > 100 µM. Further, the GI50 in the assay with TK-10 renal, in the assay with U251 CNS and in the assay with UO-31 renal was > 100 µM throughout. Besides, the TGI in the assay with CCRF-CEM leukemia, in the assay on K-562 leukemia, in the assay on MDA-MB-435, in the assay with OVCAR-3 ovarian, in the assay on SF-539 CNS and with SW-620 colon was > 100 µM each time. In addition, the TGI in the assay with TK-10 renal, with U251 CNS and in the assay with UO-31 renal was > 100 µM in each case.

Consider `CC(=O)N=C1N(/C=C2\C(=O)Oc3ccccc3C2=O)C(=O)/C(=C/c2ccccc2Cl)N1C`, for which the TGI with 786-0 renal, with CCRF-CEM leukemia, in the assay on K-562 leukemia, with MDA-MB-435, in the assay with SF-539 CNS and with SW-620 colon was > 100 µM throughout. Besides, the TGI in the assay on U251 CNS is > 100 µM.

Regarding `CCOC(=O)NC(=S)c1ccc(O)c2ccccc12`, the TGI is > 100 µM in the assay on 786-0 renal; 46.7 µM in the assay on CCRF-CEM leukemia; > 100 µM with K-562 leukemia; > 100 µM in the assay on MDA-MB-435; > 100 µM in the assay with OVCAR-3 ovarian; > 100 µM with SF-539 CNS. Moreover, the TGI with SW-620 colon, in the assay with U251 CNS and with UO-31 renal was > 100 µM throughout.

In the case of `O=C1CN(c2ccc(Cl)cc2)C(=O)CN1NCNN1CC(=O)N(c2ccc(Cl)cc2)CC1=O`, the TGI in the assay on 786-0 renal, in the assay with CCRF-CEM leukemia, in the assay with MDA-MB-435, in the assay with OVCAR-3 ovarian, in the assay with SF-539 CNS and with SW-620 colon was > 100 µM throughout. Also, the TGI in the assay with TK-10 renal, in the assay on U251 CNS and in the assay on UO-31 renal was > 100 µM each time.

In the case of `CC(=O)OCC(OC(C)=O)C(OC(C)=O)C(OC(C)=O)C(/C=N\Nc1nc2ccccc2c(=O)[nH]1)=N/Nc1nc2ccccc2c(=O)[nH]1` (stereo unspecified), the TGI with 786-0 renal, in the assay with CCRF-CEM leukemia, in the assay on K-562 leukemia, in the assay on MDA-MB-435, in the assay on OVCAR-3 ovarian and in the assay on SF-539 CNS was > 100 µM throughout. The TGI in the assay on SW-620 colon, in the assay with U251 CNS and with UO-31 renal was > 100 µM throughout.

Take `Cc1ccc(-c2cc(-c3c(C)nn(C)c(=O)c3N)[nH]n2)cc1`: the TGI with 786-0 renal, in the assay on CCRF-CEM leukemia, in the assay with K-562 leukemia, in the assay with MDA-MB-435, in the assay with OVCAR-3 ovarian and with SF-539 CNS was > 100 µM throughout. Also, the TGI in the assay with SW-620 colon, in the assay with TK-10 renal and in the assay with U251 CNS was > 100 µM in each case.

Regarding `CCCCCCCCCc1c(O)c(O)c(CCCCCCCCC)c(CCCCCCCCC)c1CCCCCCCCC`, the TGI was > 100 µM in the assay on 786-0 renal; 88.6 µM in the assay with CCRF-CEM leukemia; > 100 µM with K-562 leukemia; > 100 µM with MDA-MB-435; > 100 µM in the assay on OVCAR-3 ovarian; > 100 µM in the assay with SF-539 CNS. Further, the TGI in the assay on SW-620 colon, with TK-10 renal and with U251 CNS was > 100 µM throughout.
